Test results reported in publication PMC3983855, “Identification and enzymatic characterization of acid phosphatase from Burkholderia gladioli” (BMC Research Notes, 2014).

Test system: membrane-bound acid phosphatase (MBAcP)
Settings: read-out: K0.5; 50 mM acetate pH 6.0, 37°C; membrane fraction; n = 1.3

`O=[N+]([O-])c1ccc(OP(=O)(O)O)cc1` [p-nitrophenylphosphate] gave a Km of 65 µM.
